From patent US6310095A, “Inhibitors of protein isoprenyl transferases” (University of Pittsburgh, priority 1998, dated 2001)
Counter-ions that a name gives are not always drawn. Like-named read-outs stand apart in the source and are kept apart here. One block for each molecule: values may come before it.

Biological target: T1, protein farnesyltransferase (Rattus norvegicus, UniProt Q02293+Q04631)
T1 construct: Rat brain protein farnesyltransferase activity is measured; from tissue; host or cells: rat brain; purified according to Reiss et al., Cell 62:81-88 (1990), steps one through three
Test: in vitro inhibition of protein farnesyltransferase (scintillation proximity assay, biotin-K Ras B fragment)
Type: biochemical
Conditions: for inhibition at 1 µM / inhibition at 0.01 µM / inhibition at 0.1 µM: read-out: % inhibition of farnesyltransferase
Method in brief: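 Scintillation proximity read-out of farnesylation, using a biotinylated K Ras B fragment (0.1 mM final) in place of biotin-lamin. Enzyme purified from rat brain; results given as % inhibition.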

inhibition at 0.01 µM (at 1 × 10^-8 M): 85%
SMILES: CSCC[C@H](NC(=O)c1ccc(CN(Cc2ccccc2)c2ccc(C(F)(F)F)cc2)cc1-c1ccccc1C)C(=O)O [Example 853, N-[4-(N-benzyl-N-(4-trifluoromethylphenyl)aminomethvl)-2-(2-methylphenyl)benzoyl]methionine lithium salt]

% inhibition of farnesyltransferase (at 1 × 10^-7 M): 78%
SMILES: CSCC[C@H](NC(=O)c1ccc(/C=C/c2ccc(Oc3ccccc3Cl)cc2)cc1-c1ccccc1C)C(=O)O [Example 854]

% inhibition of farnesyltransferase (at 1 × 10^-7 M): 92%
SMILES: CSCC[C@H](NC(=O)c1ccc(CCc2ccc(Oc3ccccc3Cl)cc2)cc1-c1ccccc1C)C(=O)O [Example 855]

% inhibition of farnesyltransferase (at 1 × 10^-7 M): 97%
SMILES: CSCC[C@H](NC(=O)c1ccc(/C=C/c2ccc(Oc3ccccc3[N+](=O)[O-])cc2)cc1-c1ccccc1C)C(=O)O [Example 856]

% inhibition of farnesyltransferase (at 1 × 10^-7 M): 92%
SMILES: CSCC[C@H](NC(=O)c1ccc(CCc2ccc(Oc3ccccc3N)cc2)cc1-c1ccccc1C)C(=O)O [Example 857]

% inhibition of farnesyltransferase (at 1 × 10^-8 M): 60%
SMILES: CSCC[C@H](NC(=O)c1ccc(/C=C/c2ccc(Oc3cccc(Cl)c3)cc2)cc1-c1ccccc1C)C(=O)O [Example 858]

% inhibition of farnesyltransferase (at 1 × 10^-7 M): 86%
SMILES: CSCC[C@H](NC(=O)c1ccc(CCc2ccc(Oc3cccc(Cl)c3)cc2)cc1-c1ccccc1C)C(=O)O [Example 859]

% inhibition of farnesyltransferase (at 1 × 10^-8 M): 85%
SMILES: CSCC[C@H](NC(=O)c1ccc(CCc2ccc(Oc3ccc(Cl)cc3)cc2)cc1-c1ccccc1C)C(=O)O [Example 860]

inhibition at 1 µM (at 1 × 10^-6 M): 95%
SMILES: CSCC[C@H](NC(=O)c1ccc(CNc2ccc(N3CCCCC3)cc2)cc1-c1ccccc1C)C(=O)O [Example 862, N-[4-N-(4-piperidin-1-ylphenyl)aminomethyl-2-(2-methylphenyl)benzoyl]methionine]

inhibition at 0.1 µM (at 1 × 10^-7 M): 72%
SMILES: CSCC[C@H](NC(=O)c1ccc(CNc2ccc(N3CCOCC3)cc2)cc1-c1ccccc1C)C(=O)O [Example 863, N-[4-N-(4-morpholin-1-ylphenyl)aminomethyl-2-(2-methylphenyl)benzoyl]methionine]

inhibition at 0.1 µM (at 1 × 10^-7 M): 84%
SMILES: CSCC[C@H](NC(=O)c1ccc(CNc2ccc(Oc3ccccc3)cc2)cc1-c1ccccc1C)C(=O)O [Example 864, N-[4-N-(4-phenoxyphenyl)aminomethyl-2-(2-methylphenyl)benzoyl]methionine]

% inhibition of farnesyltransferase (at 1 × 10^-6 M): 62%
SMILES: CSCC[C@H](NC(=O)c1ccc(CN2CCN(C(=O)OC(C)(C)C)CC2)cc1-c1ccccc1C)C(=O)O [Example 866]

% inhibition of farnesyltransferase (at 1 × 10^-6 M): 71%
SMILES: CSCC[C@H](NC(=O)c1ccc(CN2CCN(c3ccccc3)CC2)cc1-c1ccccc1C)C(=O)O [Example 867]

inhibition at 0.01 µM (at 1 × 10^-8 M): 68%
SMILES: CSCC[C@H](NC(=O)c1ccc(CN(Cc2cncs2)S(=O)(=O)c2ccc(C)cc2)cc1-c1ccccc1C)C(=O)O [Example 877]

inhibition at 1 µM (at 1 × 10^-6 M): 95%
SMILES: CSCC[C@H](NC(=O)c1ccc(CN(Cc2cncs2)S(C)(=O)=O)cc1-c1ccccc1C)C(=O)O [Example 878, N-[4-N-(methanesulfonyl-N-thiazol-2-ylmethyl)aniinomethyl-2-(2-methylphenyl)-benzoyl]methionine]

inhibition at 0.01 µM (at 1 × 10^-8 M): 95%
SMILES: CSCC[C@H](NC(=O)c1ccc(CN(CCC2CCCCC2)C2CC2)cc1-c1ccccc1C)C(=O)O [Example 880, N-[4-(N-2-Cyclohexylethyl-N-cyclopropylaminomethyl)-2-(2-methylphenyl)benzoyl]methionine]

inhibition at 0.01 µM (at 1 × 10^-8 M): 69%
SMILES: CSCC[C@H](NC(=O)c1ccc(CN(Cc2cncs2)C2CCSCC2)cc1-c1ccccc1C)C(=O)O [Example 881]

% inhibition of farnesyltransferase (at 1 × 10^-8 M): 79%
SMILES: CSCC[C@H](NC(=O)c1ccc(CO[C@H](CSC)CC2CCCCC2)cc1-c1ccccc1C)C(=O)O [Example 882]

% inhibition of farnesyltransferase (at 1 × 10^-8 M): 91%
SMILES: CSCC[C@H](NC(=O)c1ccc(CO[C@H](CSC(C)(C)C)CC2CCCCC2)cc1-c1ccccc1C)C(=O)O [Example 883]

% inhibition of farnesyltransferase (at 1 × 10^-8 M): 94%
SMILES: CSCC[C@H](NC(=O)c1ccc(CO[C@H](CSc2ccccc2)CC2CCCCC2)cc1-c1ccccc1C)C(=O)O [Example 884]

% inhibition of farnesyltransferase (at 1 × 10^-8 M): 95%
SMILES: CSCC[C@H](NC(=O)c1ccc(CO[C@@H](CC2CCCCC2)CN2CCOCC2)cc1-c1ccccc1C)C(=O)O [Example 885]

inhibition at 0.01 µM (at 1 × 10^-8 M): 92%
SMILES: CSCC[C@H](NC(=O)c1ccc(CN[C@@H](CC2CCCCC2)C(=O)N2CCCCC2)cc1-c1ccccc1C)C(=O)O [Example 887, N-[4-N-(3-Cyclohexyl-1-oxo-1-piperidin-1-ylpropan-2-yl)aminomethyl-2-(2-methylphenyl)benzoyl]-methionine lithium salt]

% inhibition of farnesyltransferase (at 1 × 10^-8 M): 86%
SMILES: CSCC[C@H](NC(=O)c1ccc(CON=C(Cc2ccccc2)Cc2ccccc2)cc1-c1ccccc1C)C(=O)O [Example 888]

% inhibition of farnesyltransferase (at 1 × 10^-7 M): 96%
SMILES: COc1ncc(COCc2ccc(C(=O)N[C@@H](CCSC)C(=O)O)c(-c3ccccc3C)c2)s1 [Example 896]

% inhibition of farnesyltransferase (at 1 × 10^-7 M): 95%
SMILES: CSCC[C@H](NC(=O)c1ccc(COCc2cnc(-c3ccc(F)cc3)s2)cc1-c1ccccc1C)C(=O)O [Example 900]

inhibition at 1 µM (at 1 × 10^-6 M): 85%
SMILES: CSCC[C@H](NC(=O)c1ccc(NC(=O)OCc2cncs2)cc1-c1ccccc1C)C(=O)O [Example 902, N-[4-N-(thiazol-5-ylmethoxycarbonyl)amino-2-(2-methylphenylbenzoyl]methioninelithium salt]

inhibition at 0.01 µM (at 1 × 10^-8 M): 86%
SMILES: CCSC[C@H](CC(C)C)NCc1ccc(C(=O)N[C@@H](CCSC)C(=O)O)c(-c2ccccc2C)c1 [Example 905, N-[4-(N-(1-ethylthio-4-methylpentan-2-yl)aminomethyl)-2-(2-methylphenyl)benzoyl]-methionine]

More lines, now with the values behind:

SMILES: CSCC[C@H](NC(=O)c1ccc(CN(Cc2ccccc2)c2ccccc2SC)cc1-c1ccccc1C)C(=O)O [Example 850, N-[4-(N-benzyl-N-(2-methylthiophenyl)aminomethyl)-2-(2-methylphenyl)benzoyl]methionine lithium salt]
inhibition at 1 µM: 90%

SMILES: CSCC[C@H](NC(=O)c1ccc(CN(Cc2ccccc2)c2cccc(SC)c2)cc1-c1ccccc1C)C(=O)O [Example 851, N-[4-(N-benzyl-N-(3-methylthiophenyl)aminomethyl)-2-(2-methylphenyl)benzoyl]methionine lithium salt]
inhibition at 0.01 µM: 82%

SMILES: CSCC[C@H](NC(=O)c1ccc(CN(Cc2ccccc2)c2ccc(SC)cc2)cc1-c1ccccc1C)C(=O)O [Example 852, N-[4-(N-benzyl-N-(4-methylthiophenyl)aminomethyl)-2-(2-methylphenyl)benzoyl]methionine lithium salt]
inhibition at 0.01 µM: 79%

SMILES: CSCC[C@H](NC(=O)c1ccc(/C=C/c2ccc(Oc3cccc([N+](=O)[O-])c3)cc2)cc1-c1ccccc1C)C(=O)O [Example 861]
% inhibition of farnesyltransferase (at 1 × 10^-7 M): 65%

SMILES: CSCC[C@H](NC(=O)c1ccc(COCc2ccc(-c3ccc(F)cc3)o2)cc1-c1cccc2ccccc12)C(=O)[O-].[Li+] [Example 868]
% inhibition of farnesyltransferase (at 1 × 10^-6 M): 89%

SMILES: CSCC[C@H](NC(=O)c1ccc(COCc2ccc(-c3ccc(F)cc3)o2)cc1-c1ccc(F)cc1Cl)C(=O)[O-].[Li+] [Example 869]
% inhibition of farnesyltransferase (at 1 × 10^-7 M): 92%

SMILES: CSCC[C@H](NC(=O)c1ccc(OCCCc2ccccc2)cc1-c1ccccc1C)C(=O)[O-].[Li+] [Example 879]
% inhibition of farnesyltransferase (at 1 × 10^-6 M): 95%

SMILES: CSCC[C@H](NC(=O)c1ccc(CN(C(=O)OC(C)(C)C)C(CC2CCCCC2)CC2CCCCC2)cc1-c1ccccc1C)C(=O)O [Example 886, N-[4-N-t-Butyloxycarbonyl-N-(1,3-dicyclohexylpropan-2-yl)aminomethyl-2-(2-methylphenyl)-benzoyl]methionine lithium salt]
inhibition at 1 µM (at 1 × 10^-6 M): 35%

SMILES: CSCC[C@H](NC(=O)c1ccc(COCC(CC2CCCCC2)CC2CCCCC2)cc1-c1ccccc1C)C(=O)O [Example 889]
% inhibition of farnesyltransferase (at 1 × 10^-6 M): 95%

SMILES: CSCC[C@H](NC(=O)c1ccc(COCc2cnco2)cc1-c1ccccc1C)C(=O)[O-].[Li+] [Example 891]
% inhibition of farnesyltransferase (at 1 × 10^-7 M): 94%

SMILES: CSCC[C@H](NC(=O)c1ccc(COCc2cnc(-c3ccccc3Cl)o2)cc1-c1ccccc1C)C(=O)[O-].[Li+] [Example 892]
% inhibition of farnesyltransferase (at 1 × 10^-8 M): 59%

SMILES: CSCC[C@H](NC(=O)c1ccc(COCc2cnc(-c3cccc(Cl)c3)o2)cc1-c1ccccc1C)C(=O)[O-].[Li+] [Example 893]
% inhibition of farnesyltransferase (at 1 × 10^-7 M): 87%

SMILES: CSCC[C@H](NC(=O)c1ccc(COCc2cnc(-c3ccc(Cl)cc3)o2)cc1-c1ccccc1C)C(=O)[O-].[Li+] [Example 894]
% inhibition of farnesyltransferase (at 1 × 10^-7 M): 89%

SMILES: CSCC[C@H](NC(=O)c1ccc(COCc2cnc(C(C)(C)C)s2)cc1-c1ccccc1C)C(=O)[O-].[Li+] [Example 895]
% inhibition of farnesyltransferase (at 1 × 10^-7 M): 92%

SMILES: CSCC[C@H](NC(=O)c1ccc(COCc2cnc(-c3ccccc3Cl)s2)cc1-c1ccccc1C)C(=O)[O-].[Li+] [Example 897]
% inhibition of farnesyltransferase (at 1 × 10^-8 M): 76%

SMILES: CSCC[C@H](NC(=O)c1ccc(COCc2cnc(-c3cccc(F)c3)s2)cc1-c1ccccc1C)C(=O)[O-].[Li+] [Example 898]
% inhibition of farnesyltransferase (at 1 × 10^-8 M): 82%

SMILES: CSCC[C@H](NC(=O)c1ccc(COCc2cnc(-c3cccc(Cl)c3)s2)cc1-c1ccccc1C)C(=O)[O-].[Li+] [Example 899]
% inhibition of farnesyltransferase (at 1 × 10^-8 M): 88%

SMILES: CSCC[C@H](NC(=O)c1ccc(COCc2cnc(-c3ccc(Cl)cc3)s2)cc1-c1ccccc1C)C(=O)[O-].[Li+] [Example 901]
% inhibition of farnesyltransferase (at 1 × 10^-8 M): 84%

SMILES: CSCC[C@H](NC(=O)c1ccc(COCc2cc(-c3ccc(Cl)cc3)co2)cc1-c1ccccc1C)C(=O)[O-].[Li+] [Example 904]
% inhibition of farnesyltransferase (at 1 × 10^-8 M): 85%

SMILES: CCSC[C@H](CC(C)C)N(C)Cc1ccc(C(=O)N[C@@H](CCSC)C(=O)O)c(-c2ccccc2C)c1 [Example 906, N-[4-(N-(1-ethylthio-4-methylpentan-2-yl)-N-methylaminomethyl)-2-(2-methylphenyl)benzoyl]-methionine]
inhibition at 0.1 µM (at 1 × 10^-7 M): 88%
